Residue numbers refer to the chain shown, from its start.
Key:
FAM86A [1] = target: T1, FAM86A (Homo sapiens, UniProt Q96G04, I256Y/M257Y/E296Y); assay: X-ray crystal structure, […] A; conditions: co-crystallised with 1 mM SAH, ammonium citrate pH 7.0, PEG 3350, 5 mM TCEP, 12 C; SAM-binding site of MTase domain
T1 construct: gene EEF2KMT; full-length, surface-entropy-reduction triple mutant; N-terminal His6-MBP tag removed by TEV; E. coli BL21(DE3) RIL; residues 1-5 and 127-133 not traced
T1 sequence (Q96G04 1-330 I256Y/M257Y/E296Y): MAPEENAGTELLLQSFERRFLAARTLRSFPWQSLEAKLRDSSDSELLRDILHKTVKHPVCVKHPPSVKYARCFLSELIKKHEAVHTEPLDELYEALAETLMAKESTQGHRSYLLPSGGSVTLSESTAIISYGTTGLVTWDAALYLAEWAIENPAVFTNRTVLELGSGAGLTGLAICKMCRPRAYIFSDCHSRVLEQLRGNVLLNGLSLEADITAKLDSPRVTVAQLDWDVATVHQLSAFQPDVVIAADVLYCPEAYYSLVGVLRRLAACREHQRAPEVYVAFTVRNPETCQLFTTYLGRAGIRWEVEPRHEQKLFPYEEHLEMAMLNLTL

FAM86A [2] = target: T2, FAM86A (Homo sapiens, UniProt Q96G04); assay: in vitro methylation, autoradiography; format: biochemical; conditions: labelled compound; methyl donor; co-substrate recombinant human EEF2 (Lys525); Tris-HCl pH 8.0, 20 mM KCl, 5 mM MgCl2, 10% glycerol, 30 C overnight
T2 construct: gene EEF2KMT; full-length; E. coli BL21
T2 sequence (Q96G04 1-330): T1 sequence (Q96G04 1-330 I256Y/M257Y/E296Y) with Y256I, Y257M, Y296E
Protocol: in vitro methylation, autoradiography on FA[…] | incubating recombinant, purified FA[…] with recombinant, purified EEF2 in the presence of radiolabeled SAM

FAM86A [3] = target: T3, FAM86A (Homo sapiens, UniProt Q96G04, A97R); assay: in vitro methylation, autoradiography; format: biochemical; conditions: labelled compound; methyl donor; co-substrate recombinant human EEF2 (Lys525); Tris-HCl pH 8.0, 20 mM KCl, 5 mM MgCl2, 10% glycerol, 30 C overnight
T3 construct: gene EEF2KMT; full-length; E. coli BL21
T3 sequence (Q96G04 1-330 A97R): T1 sequence (Q96G04 1-330 I256Y/M257Y/E296Y) with A97R, Y256I, Y257M, Y296E

| SMILES | X-ray crystal structure, 3.3 A (FAM86A [1]) | in vitro methylation, autoradiography (FAM86A [2]) | in vitro methylation, autoradiography (FAM86A [3]) |
| --- | --- | --- | --- |
| Nc1ncnc2c1ncn2[C@@H]1O[C@H](CSCC[C@H](N)C(=O)O)[C@@H](O)[C@H]1O [SAH, S-adenosyl homocysteine] | structure determination of full-length FAM86A in complex with cofactor–by-product S-adenosyl homocysteine (SAH) | – | – |
| C[S+](CC[C@H](N)C(=O)O)C[C@H]1O[C@@H](n2cnc3c(N)ncnc32)[C@H](O)[C@@H]1O (stereo partly drawn) [SAM, S-adenosyl methionine] | – | incubating recombinant, purified FAM86A with recombinant, purified EEF2 in the presence of radiolabeled SAM | the activity of purified FAM86A (A97R) on purified EEF2 was similar to that of wildtype |

Reference: article PMC10285254, “The FAM86 domain of FAM86A confers substrate specificity to promote EEF2-Lys525 methylation” (The Journal of Biological Chemistry, 2023)
